According to ChEMBL document CHEMBL1201862, “PubChem BioAssay data set” (2004):
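Tested at 5 concentrations; 48 h exposure; 96-well plates; endpoints linearly interpolated, else capped at highest concentration. Abbreviation: GI50, concentration required for 50% inhibition of growth.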 The source made the active and inactive calls. Rule as the data show it: active = GI50 up to about 1.1 µM and inactive = higher.

Experiments:
Assay in all cases: NCI anticancer screen, dose series, 48 h
A498 = system: A498
HL-60 = system: HL-60
IGROV-1 = system: IGROV-1
K562 = system: K562
LOX IMVI = system: LOX IMVI
M14 = system: M14
MDA-MB-231 = system: MDA-MB-231
MOLT-4 = system: MOLT-4
Malme-3M = system: Malme-3M
NCI-H226 = system: NCI-H226
NCI-H23 = system: NCI-H23
NCI/ADR-RES = system: NCI/ADR-RES
RXF 393 = system: RXF 393
SK-MEL-28 = system: SK-MEL-28
SNB-19 = system: SNB-19
SNB-75 = system: SNB-75
SR = system: SR
UACC-257 = system: UACC-257
UACC-62 = system: UACC-62
UO-31 = system: UO-31

| Compound | GI50 (A498) | GI50 (HL-60) | GI50 (IGROV-1) | GI50 (K562) | GI50 (LOX IMVI) | GI50 (M14) | GI50 (MDA-MB-231) | GI50 (MOLT-4) | GI50 (Malme-3M) | GI50 (NCI-H226) | GI50 (NCI-H23) | GI50 (NCI/ADR-RES) | GI50 (RXF 393) | GI50 (SK-MEL-28) | GI50 (SNB-19) | GI50 (SNB-75) | GI50 (SR) | GI50 (UACC-257) | GI50 (UACC-62) | GI50 (UO-31) |
| --- | --- | --- | --- | --- | --- | --- | --- | --- | --- | --- | --- | --- | --- | --- | --- | --- | --- | --- | --- | --- |
| COc1ccc2c(c1)C1OCCNC1CC2 (stereo not given) | 40.6 µM (inactive) | > 100 µM (inactive) | > 100 µM (inactive) | > 100 µM (inactive) | > 100 µM (inactive) | > 100 µM (inactive) | > 100 µM (inactive) | > 100 µM (inactive) | > 100 µM (inactive) | > 100 µM (inactive) | > 100 µM (inactive) | > 100 µM (inactive) | > 100 µM (inactive) | > 100 µM (inactive) | > 100 µM (inactive) | > 100 µM (inactive) | > 100 µM (inactive) | > 100 µM (inactive) | > 100 µM (inactive) | > 100 µM (inactive) |
| O=C(Nc1cccc([N+](=O)[O-])c1)c1nnn(-c2cccc([N+](=O)[O-])c2)c1O | > 100 µM (inactive) | > 100 µM (inactive) | > 100 µM (inactive) | > 100 µM (inactive) | > 100 µM (inactive) | > 100 µM (inactive) | > 100 µM (inactive) | > 100 µM (inactive) | > 100 µM (inactive) | > 100 µM (inactive) | > 100 µM (inactive) | > 100 µM (inactive) | > 100 µM (inactive) | > 100 µM (inactive) | > 100 µM (inactive) | > 100 µM (inactive) | > 100 µM (inactive) | > 100 µM (inactive) | > 100 µM (inactive) | 67.5 µM (inactive) |
| CCOC(=O)/C=C(\C)Sc1cc(O)c2ccccc2c1O | 18.5 µM (inactive) | 3.77 µM (inactive) | 12 µM (inactive) | 5.51 µM (inactive) | 5.37 µM (inactive) | 10.8 µM (inactive) | 16.4 µM (inactive) | 8.05 µM (inactive) | 9.66 µM (inactive) | 25.9 µM (inactive) | 30.4 µM (inactive) | 25.3 µM (inactive) | 14.9 µM (inactive) | 13.2 µM (inactive) | 14.4 µM (inactive) | 10.1 µM (inactive) | 7.62 µM (inactive) | 18.8 µM (inactive) | 31.1 µM (inactive) | 4.51 µM (inactive) |
| NS(=O)(=O)c1cc(Br)c(/N=N\c2ccc(O)c3ncccc23)c(Br)c1 | 18.6 µM (inactive) | 6.04 µM (inactive) | 11 µM (inactive) | 20 µM (inactive) | 20.9 µM (inactive) | 13.1 µM (inactive) | 51.1 µM (inactive) | 3.99 µM (inactive) | 13.5 µM (inactive) | 45 µM (inactive) | 17.9 µM (inactive) | 13.2 µM (inactive) | 46.5 µM (inactive) | 27.4 µM (inactive) | 19.5 µM (inactive) | 21.7 µM (inactive) | 9.46 µM (inactive) | 19.6 µM (inactive) | 21.8 µM (inactive) | 21.3 µM (inactive) |
| OCC1OC(NCCNCCNC2OC(CO)C(O)C(O)C2O)C(O)C(O)C1O (stereo not given) | > 100 µM (inactive) | > 100 µM (inactive) | > 100 µM (inactive) | > 100 µM (inactive) | > 100 µM (inactive) | > 100 µM (inactive) | > 100 µM (inactive) | > 100 µM (inactive) | > 100 µM (inactive) | > 100 µM (inactive) | > 100 µM (inactive) | > 100 µM (inactive) | > 100 µM (inactive) | > 100 µM (inactive) | > 100 µM (inactive) | > 100 µM (inactive) | > 100 µM (inactive) | > 100 µM (inactive) | > 100 µM (inactive) | > 100 µM (inactive) |
| O=S(=O)(O)c1ccc(Nc2ccnc3ccccc23)cc1 | > 100 µM (inactive) | > 100 µM (inactive) | > 100 µM (inactive) | > 100 µM (inactive) | > 100 µM (inactive) | > 100 µM (inactive) | > 100 µM (inactive) | > 100 µM (inactive) | > 100 µM (inactive) | > 100 µM (inactive) | > 100 µM (inactive) | > 100 µM (inactive) | > 100 µM (inactive) | > 100 µM (inactive) | > 100 µM (inactive) | > 100 µM (inactive) | > 100 µM (inactive) | > 100 µM (inactive) | > 100 µM (inactive) | > 100 µM (inactive) |
| COc1ccc(Br)c2c1CC(C(=O)O)CC2 (stereo not given) | > 100 µM (inactive) | > 100 µM (inactive) | > 100 µM (inactive) | > 100 µM (inactive) | > 100 µM (inactive) | > 100 µM (inactive) | > 100 µM (inactive) | > 100 µM (inactive) | > 100 µM (inactive) | > 100 µM (inactive) | > 100 µM (inactive) | > 100 µM (inactive) | > 100 µM (inactive) | > 100 µM (inactive) | > 100 µM (inactive) | > 100 µM (inactive) | > 54 µM (inactive) | > 100 µM (inactive) | > 100 µM (inactive) | > 100 µM (inactive) |
| COc1ccc(N/N=C/C2=CC(C)(C)C(C#N)(C#N)C(O)=C2C#N)cc1 | 37.9 µM (inactive) | 37.7 µM (inactive) | 46.9 µM (inactive) | 16.1 µM (inactive) | 31.4 µM (inactive) | 54.2 µM (inactive) | 34.3 µM (inactive) | 28.4 µM (inactive) | 29.4 µM (inactive) | 77.8 µM (inactive) | 35.9 µM (inactive) | 37 µM (inactive) | 36.6 µM (inactive) | 91.2 µM (inactive) | 56.6 µM (inactive) | > 100 µM (inactive) | 11.5 µM (inactive) | 25 µM (inactive) | 62.2 µM (inactive) | 20.5 µM (inactive) |
| COc1ccc2c(c1)CC[C@@H]1[C@@H]2CC[C@]2(C)/C(=N/OCCN3CCCC3)CC[C@@H]12 | 3.8 µM (inactive) | 1.21 µM (inactive) | 4.51 µM (inactive) | 0.76 µM (active) | 1.57 µM (inactive) | 1.27 µM (inactive) | 3.83 µM (inactive) | 1.93 µM (inactive) | 1.63 µM (inactive) | 1.95 µM (inactive) | 5.94 µM (inactive) | 8.61 µM (inactive) | 1.92 µM (inactive) | 1.39 µM (inactive) | 11.1 µM (inactive) | 3 µM (inactive) | 1.97 µM (inactive) | 1.75 µM (inactive) | 1.82 µM (inactive) | 2.81 µM (inactive) |
